Laboratory results from patent publication US8063208B2, “Crystalline forms of (3R,4R)-4-amino-1-[[4-[(3-methoxyphenyl)amino]pyrrolo[2,1-f][1,2,4]triazin-5-yl]methyl]piperidin-3-ol” (Bristol-Myers Squibb Company, priority 2006, dated 2011).

Experiments:
various tumor cell lines = test: Antiproliferative activity in tumor cell lines; assay type: cell-based
HER4 = HER4 (Homo sapiens, UniProt Q15303); test: HER4 tyrosine kinase inhibition; assay type: biochemical
[1] = system: HER2 and HER1 driven tumor xenograft models; test: Anti-tumor efficacy in tumor xenograft models; assay type: in vivo
VEGFR2 = VEGFR2 (Homo sapiens, UniProt P35968); test: VEGFR2 inhibition; assay type: biochemical
VEGFR2, sequence (P35968 20-1356, species assumed): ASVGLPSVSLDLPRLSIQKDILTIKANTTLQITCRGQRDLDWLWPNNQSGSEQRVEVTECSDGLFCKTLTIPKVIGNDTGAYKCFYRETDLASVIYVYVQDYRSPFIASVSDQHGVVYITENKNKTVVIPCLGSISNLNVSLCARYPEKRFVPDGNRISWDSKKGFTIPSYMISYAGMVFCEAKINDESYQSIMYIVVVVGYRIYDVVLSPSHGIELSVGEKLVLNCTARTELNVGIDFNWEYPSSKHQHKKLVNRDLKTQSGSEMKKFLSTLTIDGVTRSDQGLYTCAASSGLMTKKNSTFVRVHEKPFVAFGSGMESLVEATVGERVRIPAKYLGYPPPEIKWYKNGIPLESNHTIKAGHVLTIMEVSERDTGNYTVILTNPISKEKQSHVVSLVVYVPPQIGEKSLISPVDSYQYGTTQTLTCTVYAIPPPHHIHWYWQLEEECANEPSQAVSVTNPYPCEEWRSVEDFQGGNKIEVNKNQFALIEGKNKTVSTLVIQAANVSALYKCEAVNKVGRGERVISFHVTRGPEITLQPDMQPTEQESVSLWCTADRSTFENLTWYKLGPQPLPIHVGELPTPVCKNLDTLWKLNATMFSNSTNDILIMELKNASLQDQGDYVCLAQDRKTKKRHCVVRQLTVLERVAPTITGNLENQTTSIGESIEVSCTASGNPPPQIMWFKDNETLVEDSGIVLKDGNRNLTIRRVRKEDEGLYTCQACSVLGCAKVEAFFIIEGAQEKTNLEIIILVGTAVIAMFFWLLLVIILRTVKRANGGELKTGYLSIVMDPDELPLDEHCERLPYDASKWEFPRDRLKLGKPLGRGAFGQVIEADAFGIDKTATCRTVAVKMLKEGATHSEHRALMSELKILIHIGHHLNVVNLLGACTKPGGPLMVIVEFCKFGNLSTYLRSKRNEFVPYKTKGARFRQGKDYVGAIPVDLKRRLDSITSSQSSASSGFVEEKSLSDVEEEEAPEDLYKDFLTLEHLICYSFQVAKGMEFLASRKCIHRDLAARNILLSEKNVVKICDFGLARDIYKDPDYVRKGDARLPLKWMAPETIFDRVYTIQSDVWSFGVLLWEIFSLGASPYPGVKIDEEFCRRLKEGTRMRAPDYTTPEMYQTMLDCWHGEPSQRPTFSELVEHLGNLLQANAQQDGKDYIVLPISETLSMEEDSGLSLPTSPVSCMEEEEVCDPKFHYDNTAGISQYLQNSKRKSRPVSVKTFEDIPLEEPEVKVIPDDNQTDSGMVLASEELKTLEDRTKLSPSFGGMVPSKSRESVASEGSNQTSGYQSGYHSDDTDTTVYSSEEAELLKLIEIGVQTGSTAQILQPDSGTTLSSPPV

HER1 = HER1 (Homo sapiens, UniProt P00533); test: HER1 tyrosine kinase inhibition; assay type: biochemical
HER1, sequence (P00533 25-1210): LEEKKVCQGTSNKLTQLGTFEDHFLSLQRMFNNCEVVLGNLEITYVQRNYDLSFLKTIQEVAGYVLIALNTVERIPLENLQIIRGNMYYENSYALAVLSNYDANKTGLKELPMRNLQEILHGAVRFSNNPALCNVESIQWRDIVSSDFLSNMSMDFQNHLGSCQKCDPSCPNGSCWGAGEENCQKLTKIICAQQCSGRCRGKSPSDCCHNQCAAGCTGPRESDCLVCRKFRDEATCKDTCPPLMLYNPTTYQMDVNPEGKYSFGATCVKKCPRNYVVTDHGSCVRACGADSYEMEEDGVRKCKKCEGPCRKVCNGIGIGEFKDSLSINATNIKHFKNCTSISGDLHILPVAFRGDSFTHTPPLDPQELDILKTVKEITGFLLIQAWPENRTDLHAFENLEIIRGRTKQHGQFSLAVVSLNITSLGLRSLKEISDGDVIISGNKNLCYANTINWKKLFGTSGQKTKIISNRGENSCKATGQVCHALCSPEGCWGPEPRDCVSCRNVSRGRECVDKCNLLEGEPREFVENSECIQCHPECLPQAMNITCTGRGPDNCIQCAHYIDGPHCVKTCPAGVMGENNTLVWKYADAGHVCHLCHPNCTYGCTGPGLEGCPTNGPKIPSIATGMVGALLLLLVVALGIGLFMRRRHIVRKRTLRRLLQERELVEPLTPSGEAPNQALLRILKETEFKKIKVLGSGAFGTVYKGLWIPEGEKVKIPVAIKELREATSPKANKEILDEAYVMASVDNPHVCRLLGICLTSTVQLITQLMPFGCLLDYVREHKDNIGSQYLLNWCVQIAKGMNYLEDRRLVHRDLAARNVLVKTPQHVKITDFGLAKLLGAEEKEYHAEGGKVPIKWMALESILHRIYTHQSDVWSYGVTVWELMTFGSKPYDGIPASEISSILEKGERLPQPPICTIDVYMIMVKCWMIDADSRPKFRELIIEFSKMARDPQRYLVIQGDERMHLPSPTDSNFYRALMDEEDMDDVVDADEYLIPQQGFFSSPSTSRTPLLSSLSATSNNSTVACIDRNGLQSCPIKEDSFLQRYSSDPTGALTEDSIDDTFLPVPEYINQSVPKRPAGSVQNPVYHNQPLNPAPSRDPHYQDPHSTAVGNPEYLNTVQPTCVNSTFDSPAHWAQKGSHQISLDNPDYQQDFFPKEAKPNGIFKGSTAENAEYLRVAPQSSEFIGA

HER2 = HER2 (Homo sapiens, UniProt P04626); test: HER2 tyrosine kinase inhibition; assay type: biochemical
HER2, sequence (P04626 23-1255): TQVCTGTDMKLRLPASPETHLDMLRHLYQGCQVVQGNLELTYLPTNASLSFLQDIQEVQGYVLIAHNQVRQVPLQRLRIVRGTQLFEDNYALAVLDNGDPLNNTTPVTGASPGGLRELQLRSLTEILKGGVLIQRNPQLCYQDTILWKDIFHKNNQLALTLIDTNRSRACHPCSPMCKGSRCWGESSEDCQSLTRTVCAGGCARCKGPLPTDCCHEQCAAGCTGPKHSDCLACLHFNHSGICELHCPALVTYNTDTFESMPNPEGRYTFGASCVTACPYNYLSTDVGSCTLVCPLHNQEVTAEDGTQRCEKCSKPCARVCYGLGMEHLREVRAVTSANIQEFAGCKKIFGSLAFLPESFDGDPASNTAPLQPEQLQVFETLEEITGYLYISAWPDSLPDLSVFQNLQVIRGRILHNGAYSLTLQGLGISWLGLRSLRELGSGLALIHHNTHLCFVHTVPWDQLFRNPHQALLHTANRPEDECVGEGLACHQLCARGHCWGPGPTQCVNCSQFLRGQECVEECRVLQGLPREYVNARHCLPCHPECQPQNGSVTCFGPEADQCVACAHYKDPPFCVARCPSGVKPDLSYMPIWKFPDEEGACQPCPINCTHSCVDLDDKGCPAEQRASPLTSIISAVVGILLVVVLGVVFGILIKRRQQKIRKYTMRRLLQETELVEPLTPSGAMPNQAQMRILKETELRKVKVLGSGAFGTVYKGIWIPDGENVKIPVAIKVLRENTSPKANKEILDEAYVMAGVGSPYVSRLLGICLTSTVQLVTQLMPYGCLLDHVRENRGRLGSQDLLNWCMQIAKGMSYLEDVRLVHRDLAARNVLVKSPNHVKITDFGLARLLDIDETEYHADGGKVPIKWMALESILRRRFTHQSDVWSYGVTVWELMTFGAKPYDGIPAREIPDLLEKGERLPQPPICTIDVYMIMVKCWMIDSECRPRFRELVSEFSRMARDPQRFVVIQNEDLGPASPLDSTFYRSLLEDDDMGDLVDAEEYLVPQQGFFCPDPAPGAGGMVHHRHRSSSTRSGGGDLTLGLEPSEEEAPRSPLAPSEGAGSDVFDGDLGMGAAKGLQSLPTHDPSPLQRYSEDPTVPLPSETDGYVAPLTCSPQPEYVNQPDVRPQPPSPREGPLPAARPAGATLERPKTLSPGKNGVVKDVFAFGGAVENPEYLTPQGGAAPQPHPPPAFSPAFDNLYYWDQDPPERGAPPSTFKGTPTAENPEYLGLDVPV

[2] = Slurry conversion of mixtures of forms; assay type: physicochemical; conditions: slurried mixtures of N-1 and N-2 convert to Form N-2
[3] = Relative thermodynamic stability of crystalline forms; assay type: physicochemical; conditions: temperatures from room temperature to 50° C.
[4] = Form conversion on heating (melt/recrystallization); assay type: physicochemical; conditions: melts at about 137° C.
Procedure: Differential scanning calorimetry (DSC) experiments were performed in a TA Instruments™ model Q1000 or 2920. The sample (about 2-6 mg) was weighed in an aluminum pan and recorded accurately recorded to a hundredth of a milligram, and transferred to the DSC. The instrument was purged with nitrogen gas at 50 mL/min. Data were collected between room temperature and 300° C. at 10° C./min heating rate. The plot was made with the endothermic peaks pointing down.

HER4, sequence (Q15303 26-1308): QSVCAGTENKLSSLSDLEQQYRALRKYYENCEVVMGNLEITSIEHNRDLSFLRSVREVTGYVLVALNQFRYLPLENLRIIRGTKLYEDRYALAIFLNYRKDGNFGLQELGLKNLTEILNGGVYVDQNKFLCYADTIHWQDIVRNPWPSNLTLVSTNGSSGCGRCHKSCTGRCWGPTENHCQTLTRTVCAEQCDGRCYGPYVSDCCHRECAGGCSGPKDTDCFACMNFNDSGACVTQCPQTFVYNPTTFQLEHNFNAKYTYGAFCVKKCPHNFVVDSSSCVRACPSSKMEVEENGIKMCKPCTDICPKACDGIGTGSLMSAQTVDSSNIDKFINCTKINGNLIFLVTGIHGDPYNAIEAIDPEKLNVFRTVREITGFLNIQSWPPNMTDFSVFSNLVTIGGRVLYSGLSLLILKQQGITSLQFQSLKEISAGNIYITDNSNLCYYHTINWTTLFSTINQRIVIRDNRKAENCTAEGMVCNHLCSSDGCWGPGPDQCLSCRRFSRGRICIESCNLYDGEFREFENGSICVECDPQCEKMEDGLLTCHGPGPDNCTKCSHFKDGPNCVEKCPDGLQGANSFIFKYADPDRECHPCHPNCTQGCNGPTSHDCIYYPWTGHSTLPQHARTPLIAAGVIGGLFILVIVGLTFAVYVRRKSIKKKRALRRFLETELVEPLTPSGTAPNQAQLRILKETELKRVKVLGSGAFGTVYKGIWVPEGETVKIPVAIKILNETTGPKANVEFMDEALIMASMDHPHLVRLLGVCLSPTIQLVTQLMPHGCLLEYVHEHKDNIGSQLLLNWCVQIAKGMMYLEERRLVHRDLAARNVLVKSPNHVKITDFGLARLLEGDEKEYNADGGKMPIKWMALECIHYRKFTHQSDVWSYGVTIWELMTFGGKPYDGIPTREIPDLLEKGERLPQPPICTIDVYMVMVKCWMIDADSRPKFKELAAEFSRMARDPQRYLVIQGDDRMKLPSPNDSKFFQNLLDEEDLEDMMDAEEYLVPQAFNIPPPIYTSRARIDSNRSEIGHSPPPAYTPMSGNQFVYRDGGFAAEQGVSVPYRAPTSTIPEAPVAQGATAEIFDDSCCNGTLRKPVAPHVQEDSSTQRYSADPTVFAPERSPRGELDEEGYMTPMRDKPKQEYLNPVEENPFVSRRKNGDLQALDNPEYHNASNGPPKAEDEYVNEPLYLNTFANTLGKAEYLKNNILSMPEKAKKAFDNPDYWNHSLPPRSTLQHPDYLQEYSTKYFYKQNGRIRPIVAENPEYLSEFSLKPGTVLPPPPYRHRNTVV

Structure (SMILES): COc1cccc(Nc2ncnn3ccc(CN4CC[C@@H](N)[C@H](O)C4)c23)c1 [Compound I, (3R,4R)-4-amino-1-[[4-[(3-methoxyphenyl)amino]pyrrolo[2,1-f][1,2,4]triazin-5-yl]methyl]piperidin-3-ol]
- antiproliferative activity (various tumor cell lines): broad antiproliferative activity
- inhibition of HER4 (HER4): potent inhibitor
- anti-tumor efficacy [1]: excellent anti-tumor efficacy
- inhibition of VEGFR2 (VEGFR2): potent inhibitor
- inhibition of HER1 (HER1): potent inhibitor
- inhibition of HER2 (HER2): potent inhibitor

Structure (SMILES): COc1cccc(Nc2ncnn3ccc(CN4CC[C@@H](N)[C@H](O)C4)c23)c1 [Form N-2, (3R,4R)-4-amino-1-[[4-[(3-methoxyphenyl)amino]pyrrolo[2,1-f][1,2,4]triazin-5-yl]methyl]piperidin-3-ol]
- stability relationship from slurried mixtures of N-1 and N-2 [2]: monotropically more stable
- thermodynamic stability relative to other form [3]: more thermodynamically stable than Form N-1

Structure (SMILES): COc1cccc(Nc2ncnn3ccc(CN4CC[C@@H](N)[C@H](O)C4)c23)c1 [Form N-1, (3R,4R)-4-amino-1-[[4-[(3-methoxyphenyl)amino]pyrrolo[2,1-f][1,2,4]triazin-5-yl]methyl]piperidin-3-ol]
- solid form conversion after melting [4]: recrystallizes as Form N-2
